# Measurements taken from patent EP0183129A1, “Quinolonecarboxylic acid derivatives” (KYORIN PHARMACEUTICAL CO., LTD., priority 1984, dated 1986).
# Like-named read-outs stand apart in the source and are kept apart here.
# Assays:
# [1] = test system: Bacillus subtilis PCI 219; experiment: In vitro antibacterial activity, MIC (standard strain); format: cell-based; settings: Bacillus subtilis, PCI219
# [2] = test system: Staphylococcus aureus 209 P; experiment: as above; format: cell-based; settings: Staphylococcus aureus, 209P
# S. aureus Smith [3] = experiment: as above; format: cell-based, Staphylococcus aureus; settings: Staphylococcus aureus
# [4] = test system: S. aureus IID 670 (Terajima); experiment: as above; format: cell-based, Staphylococcus aureus; settings: Staphylococcus aureus, IID670
# S. epidermidis IID 866 = experiment: as above; format: cell-based; settings: Staphylococcus epidermidis, IID866
# [5] = test system: Escherichia coli NIHJ JC-2; experiment: as above; format: cell-based; settings: Escherichia coli, NIHJJC2
# E. coli ATCC 10536 = experiment: as above; format: cell-based; settings: Escherichia coli, ATCC10536
# E. coli ML 4707 = experiment: as above; format: cell-based; settings: Escherichia coli, ML4707
# [6] = test system: Proteus vulgaris IFO 3167; experiment: as above; format: cell-based; settings: Proteus vulgaris, IFO3167
# P. mirabilis IID 994 = experiment: as above; format: cell-based; settings: Proteus mirabilis, IID994
# [7] = test system: Morganella morganii IID 602; experiment: as above; format: cell-based; settings: IID602
# [8] = test system: Citrobacter freundii IID 976; experiment: as above; format: cell-based; settings: Citrobacter freundii, IID976
# [9] = test system: Klebsiella pneumoniae KY(GN)6445; experiment: as above; format: cell-based; settings: Klebsiella pneumoniae
# K. pneumoniae 1-220S = experiment: as above; format: cell-based; settings: Klebsiella pneumoniae, 1220S
# [10] = test system: Salmonella entritidis IID 604; experiment: as above; format: cell-based; settings: Salmonella, IID604
# Shigella sonnei IID 969 = experiment: as above; format: cell-based; settings: IID969, 10^6 cells/ml
# Procedure: Experiment-1 In vitro antibacterial activity
# The in vitro antibacterial activity against gram-positive and gram-negative bacteria has been investivated.
# The minimum inhibitory concentration (MIC) was determined in accordance with the method recommended by Japan Society of Chemotherapy.
# [11] = test system: Yersinia enterocolitica IID 981; experiment: as above; format: cell-based; settings: Yersinia enterocolitica, IID981
# [12] = test system: Serratia marcescens IID 618; experiment: as above; format: cell-based; settings: Serratia marcescens, IID618
# [13] = test system: Fusobacterium varium KYA 8501; experiment: as above; format: cell-based; settings: Fusobacterium varium, KYA8501
# C. difficile I-E = experiment: as above; format: cell-based; settings: Clostridioides difficile
# E. coli ML4707 = experiment: In vivo antibacterial activity against systemic infection in mice; parameters: species or system mice (ICR-S); settings: Escherichia coli, ML4707, po, read-out: ED50 E. coli ML4707
# Procedure: (§1) Experiment-2 In vivo antibacterial activity against systemic infection in mice (ICR-S)
# (§2) The infections were produced by intraperitoneal injection of a suspension of the bacterial culture corresponding to the germ studied. The products were administered orally at an hour after the infection.
# S. aureus Smith [14] = experiment: as above; parameters: species or system mice (ICR-S); settings: Staphylococcus aureus, po
# Procedure: as §1, §2
# S. pneumoniae S-4288 = experiment: as above; parameters: species or system mice (ICR-S); settings: Streptococcus pneumoniae, S4288, po, read-out: ED50 S. pneumoniae S-4288
# Procedure: as §1, §2
# [15] = test system: Streptococcus pyogenes S-8; experiment: In vitro antibacterial activity, MIC (standard strain); format: cell-based; settings: Streptococcus pyogenes, S8
# S. pyogenes IID 692 = experiment: as above; format: cell-based; settings: Streptococcus pyogenes, IID692
# S. pneumoniae IID 552 = experiment: as above; format: cell-based; settings: Streptococcus pneumoniae, IID552
# S. faecalis IID 682 = experiment: as above; format: cell-based; settings: Enterococcus faecalis, IID682
# [16] = test system: Enterobacter cloacae IID 977; experiment: as above; format: cell-based; settings: Enterobacter cloacae, IID977
# S. marcescens GN 7577 = experiment: as above; format: cell-based; settings: Serratia marcescens, GN7577
# [17] = test system: Pseudomonas aeruginosa V-1; experiment: as above; format: cell-based; settings: Pseudomonas aeruginosa, V1
# P. aeruginosa IFO 12689 = experiment: as above; format: cell-based, Pseudomonas aeruginosa; settings: Pseudomonas aeruginosa, IFO12689
# P. aeruginosa IID 1210 = experiment: as above; format: cell-based; settings: Pseudomonas aeruginosa, IID1210
# [18] = test system: Acinetobacter anitratus IID 876; experiment: as above; format: cell-based; settings: Acinetobacter calcoaceticus, IID876
# [19] = test system: Alcaligenes faecalis 0104002; experiment: as above; format: cell-based; settings: Alcaligenes faecalis, 0104002
# [20] = test system: Bacteroides fragilis GM 7000; experiment: as above; format: cell-based; settings: Bacteroides fragilis, GM7000
# B. fragilis 0558 = experiment: as above; format: cell-based, Bacteroides fragilis; settings: Bacteroides fragilis, 0558
# B. fragilis 25285 = experiment: as above; format: cell-based, Bacteroides fragilis; settings: Bacteroides fragilis, 25285
# [21] = test system: Clostridium perfringens KYA 13123; experiment: microbe, parasite or virus in culture; format: cell-based; settings: KYA13123
# C. ramosum = experiment: In vitro antibacterial activity, MIC (standard strain); format: cell-based; settings: Thomasclavelia ramosa
# S. pneumoniae 15 = experiment: In vitro antibacterial activity, MIC (clinical isolates); format: cell-based; settings: Streptococcus pneumoniae, 15
# S. pneumoniae 2054 = experiment: as above; format: cell-based; settings: Streptococcus pneumoniae, 2054
# S. pneumoniae 2950 = experiment: as above; format: cell-based; settings: Streptococcus pneumoniae, 2950
# S. pneumoniae 3227 = experiment: as above; format: cell-based; settings: Streptococcus pneumoniae, 3227
# S. pyogenes 3130 = experiment: as above; format: cell-based; settings: Streptococcus pyogenes
# S. pyogenes 3102 = experiment: as above; format: cell-based; settings: Streptococcus pyogenes, 3102
# S. pyogenes 3107 = experiment: as above; format: cell-based; settings: Streptococcus pyogenes, 3107
# S. pyogenes 4340 = experiment: as above; format: cell-based; settings: Streptococcus pyogenes, 4340
# S. pyogenes 4372 = experiment: as above; format: cell-based; settings: Streptococcus pyogenes, 4372
# S. agalactiae 4394 = experiment: as above; format: cell-based; settings: Streptococcus agalactiae, 4394
# S. agalactiae 4049 = experiment: as above; format: cell-based; settings: Streptococcus agalactiae, 4049
# S. agalactiae 4342 = experiment: as above; format: cell-based; settings: Streptococcus agalactiae, 4342
# S. agalactiae 4470 = experiment: as above; format: cell-based; settings: Streptococcus agalactiae, 4470
# S. agalactiae 4368 = experiment: as above; format: cell-based; settings: Streptococcus agalactiae, 4368
# S. agalactiae 4468 = experiment: as above; format: cell-based; settings: Streptococcus agalactiae, 4468
# S. faecalis 49 = experiment: as above; format: cell-based; settings: Enterococcus faecalis, 49
# S. faecalis 214 = experiment: as above; format: cell-based; settings: Enterococcus faecalis, 214
# S. faecalis 401 = experiment: as above; format: cell-based; settings: Enterococcus faecalis, 401
# S. faecalis 402 = experiment: as above; format: cell-based; settings: Enterococcus faecalis, 402
# M. pneumoniae Mac. = experiment: In vitro antibacterial activity against Mycoplasma, MIC; format: cell-based; settings: Mycoplasmoides pneumoniae, 120 h
# Text: Experiment-3 In vitro antibacterial activity against Mycoplasma
structure (smiles),measurement,setting,value
"O=C(O)c1cn(C2CC2)c2cc(N3CCNCC3)c(F)cc2c1=O [CFLX, Ciprofloxacin, reference compound]",MIC,[1],0.05 µg/mL
same,MIC,[2],0.2 µg/mL
same,MIC,"S. aureus Smith [3]; MIC column of Table 3-1, beside ED50 against S. aureus Smith",0.2 µg/mL
same,MIC,[4],0.2 µg/mL
same,MIC,S. epidermidis IID 866,0.2 µg/mL
same,MIC,[5],0.0125 µg/mL
same,MIC,E. coli ATCC 10536,0.025 µg/mL
same,MIC,E. coli ML 4707,0.0125 µg/mL
same,MIC,[6],0.0125 µg/mL
same,MIC,P. mirabilis IID 994,0.025 µg/mL
same,MIC,"[7]; Morganella morganii IID 602, 10^6 cells/ml, standard strain, read-out: MIC",0.05 µg/mL
same,MIC,[8],0.025 µg/mL
same,MIC,[9],0.025 µg/mL
same,MIC,K. pneumoniae 1-220S,0.05 µg/mL
same,MIC,[10],0.05 µg/mL
same,MIC,Shigella sonnei IID 969,0.0125 µg/mL
same,MIC,[11],0.05 µg/mL
same,MIC,[12],0.05 µg/mL
same,MIC,[13],12.5 µg/mL
same,MIC,C. difficile I-E,12.5 µg/mL
same,ED50,E. coli ML4707,1.8 mg/kg
same,ED50,"S. aureus Smith [14]; read-out: ED50 S. aureus Smith, mice (ICR-S), an hour after intraperitoneal infection, challenge dose 6.0 x 10^5 cfu/mouse",> 25 mg/kg
same,ED50,"S. aureus Smith [14]; read-out: ED50 against S. aureus Smith, mice (ICR-S), an hour after intraperitoneal infection, challenge dose 5.5 x 10^5 cfu/mouse, n=5",25.5 mg/kg
same,ED50,"S. aureus Smith [14]; read-out: ED50 against S. aureus Smith, mice (ICR-S), an hour after intraperitoneal infection, challenge dose 7 x 10^5 cfu/mouse, n=5",12.3 mg/kg
same,ED50,S. pneumoniae S-4288,> 100 mg/kg
"NCC1CCN(c2cc3c(cc2F)c(=O)c(C(=O)O)cn3C2CC2)C1 (stereo not drawn) [Example 6, 7-(3-Aminomethyl-l-pyrrolidinyl)-l-cyclopropyl-6-fluoro-l,4-dihydro-4-oxo-3-quinolinecarboxylic acid]",MIC,[1],0.05 µg/mL
same,MIC,[2],0.05 µg/mL
same,MIC,"S. aureus Smith [3]; S. aureus Smith, 10^6 cells/ml, standard strain",0.2 µg/mL
same,MIC,[4],0.05 µg/mL
same,MIC,S. epidermidis IID 866,0.05 µg/mL
same,MIC,[15],0.1 µg/mL
same,MIC,S. pyogenes IID 692,0.2 µg/mL
same,MIC,S. pneumoniae IID 552,0.1 µg/mL
same,MIC,S. faecalis IID 682,0.39 µg/mL
same,MIC,[5],0.05 µg/mL
same,MIC,E. coli ATCC 10536,0.05 µg/mL
same,MIC,E. coli ML 4707,0.05 µg/mL
same,MIC,[6],0.05 µg/mL
same,MIC,P. mirabilis IID 994,0.1 µg/mL
same,MIC,[7]; Morganella morganii,0.39 µg/mL
same,MIC,[16],0.2 µg/mL
same,MIC,[8],0.1 µg/mL
same,MIC,[9],0.1 µg/mL
same,MIC,K. pneumoniae 1-220S,0.2 µg/mL
same,MIC,[10],0.2 µg/mL
same,MIC,Shigella sonnei IID 969,0.05 µg/mL
same,MIC,[11],0.2 µg/mL
same,MIC,[12],0.39 µg/mL
same,MIC,S. marcescens GN 7577,3.13 µg/mL
same,MIC,[17],0.78 µg/mL
same,MIC,P. aeruginosa IFO 12689,0.78 µg/mL
same,MIC,P. aeruginosa IID 1210,3.13 µg/mL
same,MIC,[18],0.78 µg/mL
same,MIC,[19],1.56 µg/mL
same,MIC,[20],6.25 µg/mL
same,MIC,B. fragilis 0558,6.25 µg/mL
same,MIC,B. fragilis 25285,12.5 µg/mL
same,MIC,[13],25 µg/mL
same,MIC,[21],3.13 µg/mL
same,MIC,C. ramosum,12.5 µg/mL
same,MIC,S. pneumoniae 15,0.2 µg/mL
same,MIC,S. pneumoniae 2054,0.39 µg/mL
same,MIC,S. pneumoniae 2950,0.2 µg/mL
same,MIC,S. pneumoniae 3227,0.2 µg/mL
same,MIC,S. pyogenes 3130,0.05 µg/mL
same,MIC,S. pyogenes 3102,0.05 µg/mL
same,MIC,S. pyogenes 3107,0.05 µg/mL
same,MIC,S. pyogenes 4340,0.05 µg/mL
same,MIC,S. pyogenes 4372,0.1 µg/mL
same,MIC,S. agalactiae 4394,0.39 µg/mL
same,MIC,S. agalactiae 4049,0.39 µg/mL
same,MIC,S. agalactiae 4342,0.2 µg/mL
same,MIC,S. agalactiae 4470,0.2 µg/mL
same,MIC,S. agalactiae 4368,0.2 µg/mL
same,MIC,S. agalactiae 4468,0.2 µg/mL
same,MIC,S. faecalis 49,0.39 µg/mL
same,MIC,S. faecalis 214,0.39 µg/mL
same,MIC,S. faecalis 401,0.39 µg/mL
same,MIC,S. faecalis 402,0.39 µg/mL
"CN(C)[C@@H]1C(O)=C(C(N)=O)C(=O)[C@@]2(O)C(O)=C3C(=O)c4c(O)cccc4[C@@](C)(O)[C@H]3C[C@@H]12 [TC, Tetracycline, reference compound]",MIC,M. pneumoniae Mac.,0.78 µg/mL
